Test results: patent US20040175568A1, “Fullerodendrimer-comprising film” (priority 2003, published 2004)

Assay: Oxidation and reduction potential of fullerodendrimer
Format: physicochemical

first oxidation potential: +1,120 mV
first reduction potential: −1,120 mV
SMILES: c12c3c4c5c1c1c6c7c2c2c8c3c3c9c4c4c%10c5c5c1c1c6c6c%11c7c2c2c7c8c3c3c8c9c4c4c9c%10c5c5c1c1c6c6c%11c2c2c7c3c3c8c4c4c9c5c1c1c6c2c3c41 [Example C60, C60]
